The values below come from publication PMC11879040, “Advancing systemic toxicity risk assessment: Evaluation of a NAM-based toolbox approach” (Toxicological Sciences, 2024).

The IC50 is the concentration needed to halve the response being measured.

Series [1] concerns Glutamate receptor ionotropic NMDA 1 non-selective, GRIN1 (r).
The conditions of series [2]: ref [19-22]; cited from earlier work.
Series [3] deals with monkey. The conditions noted are these: lifetime monkey study, 500 mg/kg bw/day, at 23 years; ref [19-22]; cited from earlier work.
Series [4] relates to human. The conditions noted are these: 7 month human volunteer study; ref [19-22]; cited from earlier work.
In series [5] the test system is MCF7 cells. The series can be described thus: High-throughput transcriptomics (HTTr, TempO-Seq), MCF7, 24 h. Format: cell-based, human. The note with it: MCF-7. The method, then:
(§1) HepG2, HepaRG, and MCF7 cells were treated with each compound for 24 h across a dose range of 7 concentrations and lysed using TempO-Seq lysis buffer (BioSpyder Technologies, proprietary kit, see [Middleton et al. 2022] for method details). Sequencing was performed using TempO-Seq (BioClavis) version 2 of the human whole transcriptome panel and analyzed as described previously in Middleton et al.

The conditions of series [6]: human.
The subject of series [7] is Gamma-aminobutyric acid receptor subunit alpha-1 BZD site, GABRA1A (r). It counts as binding, rat.
For series [8], the system named is Tubulin (r). The series can be described thus: IPP Tubulin binding. Also on record: species or system rat. The conditions noted are these: 100 uM; ligand/control Colchicine.
For series [9], the system named is HepaRG cells. The series can be described thus: High-throughput transcriptomics (HTTr, TempO-Seq), HepaRG, 24 h. The note with it: HepaRG. Format: cell-based, human. Here is the method:
as §1

In series [10] the test system is HepG2 cells. The series can be described thus: Cell stress panel (CSP), 24 h, 8 concentrations, BIFROST global PoD. It counts as cell-based. The note with it: HepG2; cell stress panel PoD. Here is the method: Compounds were tested using the previously developed cell stress panel ([Hatherell et al. 2020]) and the expanded biomarker panel outlined in Middleton et al. HepG2 cells were treated with all compounds for 24 h across 8 concentrations prior to biomarker analysis. The same plate layout and number of replicates (3 biological and 2 technical) were used as previously for each assay within the panel.

Series [11] deals with T1, Adenosine receptor A2a, ADORA2A (h) (Homo sapiens, UniProt P29274).
T1 construct: purchased Eurofins Cerep (SafetyScreen44-based IPP panel)
The series can be described thus: IPP ADORA2A binding (agonist radioligand). The conditions noted are these: IPP screening at 100 uM; control NECA.

The test system of series [12] is Potassium Voltage-Gated Channel Kv non-selective, KCNQ1 (r). The series can be described thus: IPP KCNQ1 binding (antagonist radioligand). More on the design: species or system rat. The note with it: IPP screening at 100 uM; control α-dendrotoxin.
Series [13] relates to Sodium channel protein type 5 subunit alpha (site 2), SCN5A (r). It counts as binding, rat.
The test system of series [14] is Thyroid hormone receptor alpha, THRA (h). The series can be described thus: IPP THRA coactivator recruitment (agonist). Format: biochemical, human. The note with it: 100 uM; agonist; T3; * denotes assay interference (2-Amino-6-chloro-4-nitrophenol, HC Red 3).
Series [15] concerns HepG2 cells. The series can be described thus: High-throughput transcriptomics (HTTr, TempO-Seq), HepG2, 24 h. Format: cell-based, human. The method, then:
as §1

For series [16] the following is noted: cited from earlier work.
The conditions of series [17]: cited from earlier work. The source holds these as a separate data set.
The nature of series [18]: Assignment of risk classifications to benchmark chemical-exposure scenarios. The note with it: for risk: from table S1.
Series [19] has as its target Voltage-dependent L-type Ca2+ channel (dihydropyridine site), CACNA1C (r) (Rattus norvegicus, UniProt P22002). It counts as binding.
The target of series [20] is Dopamine receptor D2, DRD2 (h) (Homo sapiens, UniProt P14416). The series can be described thus: biochemical.
Series [21] is described as follows: intestinal absorption (PBK input). Format: in vitro ADME. The conditions noted are these: levels L2/L3, converted from [36].
Series [22] deals with 63 targets with known safety liabilities. The series can be described thus: In vitro pharmacological profiling (IPP) panel, screening at 10 or 100 µM and dose response, minimum IC50/AC50. It counts as biochemical. The conditions noted are these: lowest AC50 across IPP panel (systemic targets); cell_type -; read-out: ipp_lowest_ac50_systemic PoD.
Series [23] has as its system rat. The conditions noted are these: rat; repeat dose toxicity : oral; ref ToxRefDB/Paul-Friedman et al. (2020)/regulatory opinions; cited from earlier work.
Series [24] is described as follows: hepatic intrinsic clearance (Clint). The conditions noted are these: PBK input, levels L2/L3; scaled from [10].
For series [25] the following is noted: PBK input, level L2; ref [10]; cited from earlier work.
[26] abbreviates: IV 10 mg infusion (8.9 mg), 6 healthy, calibration, ref Ross-Lee et al. 1981.
[27] abbreviates: IV 20 mg infusion (15.4 mg base), 8 healthy, validation, ref Magueur et al. 1991.
Setting [28] is: Oral 10 mg tablet (8.9 mg), fasted, 6 healthy, calibration, ref Ross-Lee et al. 1981.
[29] abbreviates: Oral 10 mg tablet (8.9 mg), fasted, 8 healthy male, validation, ref Bateman et al. 1980.
[30] abbreviates: Oral 20 mg tablet (17 mg base), fasted, 8 healthy, validation, ref Magueur et al. 1991.
The mark [31] stands for this setting: Oral 20 mg tablet (17.8 mg), fasted, 8 healthy male, validation, ref Bateman et al. 1980.
Where [32] appears, read: IPP screening at 100 uM, control diazepam.

Read-outs that look alike come from different tables or passages of the source.

T1 sequence (P29274 whole entry): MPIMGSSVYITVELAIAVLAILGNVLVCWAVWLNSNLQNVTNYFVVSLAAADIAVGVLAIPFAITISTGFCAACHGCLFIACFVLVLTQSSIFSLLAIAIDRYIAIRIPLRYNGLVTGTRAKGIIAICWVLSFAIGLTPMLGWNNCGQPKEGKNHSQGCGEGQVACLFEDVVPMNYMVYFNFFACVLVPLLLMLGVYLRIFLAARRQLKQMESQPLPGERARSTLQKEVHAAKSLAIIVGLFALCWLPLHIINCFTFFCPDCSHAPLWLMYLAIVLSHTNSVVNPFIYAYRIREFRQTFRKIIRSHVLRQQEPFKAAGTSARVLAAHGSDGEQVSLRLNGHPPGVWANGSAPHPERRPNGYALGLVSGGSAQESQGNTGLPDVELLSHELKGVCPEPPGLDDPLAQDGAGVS
Chain of Voltage-dependent L-type Ca2+ channel (dihydropyridine site), CACNA1C (r) (P22002 whole entry): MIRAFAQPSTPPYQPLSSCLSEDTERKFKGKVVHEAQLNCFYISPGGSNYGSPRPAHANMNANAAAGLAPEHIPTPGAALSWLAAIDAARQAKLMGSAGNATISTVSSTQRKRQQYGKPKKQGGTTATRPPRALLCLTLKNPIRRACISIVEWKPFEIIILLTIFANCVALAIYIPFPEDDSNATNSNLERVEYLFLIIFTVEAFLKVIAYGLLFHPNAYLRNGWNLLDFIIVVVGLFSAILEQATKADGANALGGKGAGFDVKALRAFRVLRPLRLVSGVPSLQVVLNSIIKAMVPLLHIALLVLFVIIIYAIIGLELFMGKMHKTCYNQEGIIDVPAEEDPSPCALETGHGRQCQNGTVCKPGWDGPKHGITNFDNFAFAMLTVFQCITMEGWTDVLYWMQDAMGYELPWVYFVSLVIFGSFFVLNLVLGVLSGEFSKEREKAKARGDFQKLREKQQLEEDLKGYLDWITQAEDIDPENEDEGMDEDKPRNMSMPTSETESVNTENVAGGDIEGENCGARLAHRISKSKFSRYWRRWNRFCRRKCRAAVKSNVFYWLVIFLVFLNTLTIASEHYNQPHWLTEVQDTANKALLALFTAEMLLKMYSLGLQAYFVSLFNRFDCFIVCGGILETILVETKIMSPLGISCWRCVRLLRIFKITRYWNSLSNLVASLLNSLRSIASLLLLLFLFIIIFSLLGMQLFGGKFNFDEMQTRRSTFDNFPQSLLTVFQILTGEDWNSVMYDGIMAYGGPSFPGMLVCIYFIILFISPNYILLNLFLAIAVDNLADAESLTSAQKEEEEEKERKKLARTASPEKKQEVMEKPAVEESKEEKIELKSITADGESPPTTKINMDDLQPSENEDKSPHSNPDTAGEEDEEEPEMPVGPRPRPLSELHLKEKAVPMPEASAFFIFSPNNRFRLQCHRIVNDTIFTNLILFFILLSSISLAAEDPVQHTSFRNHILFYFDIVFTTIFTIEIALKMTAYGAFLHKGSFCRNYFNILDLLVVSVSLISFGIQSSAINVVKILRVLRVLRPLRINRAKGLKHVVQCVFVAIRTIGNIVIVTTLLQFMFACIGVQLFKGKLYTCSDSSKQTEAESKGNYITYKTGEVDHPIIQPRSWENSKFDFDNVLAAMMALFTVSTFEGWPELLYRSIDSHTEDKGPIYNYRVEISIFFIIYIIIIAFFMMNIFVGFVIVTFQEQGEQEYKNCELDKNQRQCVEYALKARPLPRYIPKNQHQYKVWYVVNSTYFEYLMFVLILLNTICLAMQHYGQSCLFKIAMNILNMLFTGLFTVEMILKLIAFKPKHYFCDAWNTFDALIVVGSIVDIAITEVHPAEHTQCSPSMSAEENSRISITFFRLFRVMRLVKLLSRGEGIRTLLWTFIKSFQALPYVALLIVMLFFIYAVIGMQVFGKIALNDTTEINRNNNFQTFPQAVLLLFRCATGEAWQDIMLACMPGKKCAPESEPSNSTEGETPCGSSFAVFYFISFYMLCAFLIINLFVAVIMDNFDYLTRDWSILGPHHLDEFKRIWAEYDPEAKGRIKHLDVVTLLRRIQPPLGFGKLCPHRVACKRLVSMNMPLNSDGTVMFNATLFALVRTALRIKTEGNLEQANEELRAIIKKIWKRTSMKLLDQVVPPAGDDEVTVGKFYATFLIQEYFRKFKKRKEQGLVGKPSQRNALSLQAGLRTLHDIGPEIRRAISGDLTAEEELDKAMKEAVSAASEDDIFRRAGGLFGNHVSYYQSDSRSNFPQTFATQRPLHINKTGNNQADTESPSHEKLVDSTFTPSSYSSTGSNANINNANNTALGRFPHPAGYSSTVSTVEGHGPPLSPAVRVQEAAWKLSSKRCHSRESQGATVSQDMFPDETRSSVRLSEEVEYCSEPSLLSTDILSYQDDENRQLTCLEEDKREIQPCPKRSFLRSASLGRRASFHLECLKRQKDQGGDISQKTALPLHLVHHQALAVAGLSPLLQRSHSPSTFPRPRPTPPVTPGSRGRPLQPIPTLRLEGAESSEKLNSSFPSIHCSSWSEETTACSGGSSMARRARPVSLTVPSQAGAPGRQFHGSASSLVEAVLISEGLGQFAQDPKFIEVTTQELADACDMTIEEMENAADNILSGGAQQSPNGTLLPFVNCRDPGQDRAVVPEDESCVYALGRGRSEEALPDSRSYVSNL
Chain of Dopamine receptor D2, DRD2 (h) (P14416 whole entry): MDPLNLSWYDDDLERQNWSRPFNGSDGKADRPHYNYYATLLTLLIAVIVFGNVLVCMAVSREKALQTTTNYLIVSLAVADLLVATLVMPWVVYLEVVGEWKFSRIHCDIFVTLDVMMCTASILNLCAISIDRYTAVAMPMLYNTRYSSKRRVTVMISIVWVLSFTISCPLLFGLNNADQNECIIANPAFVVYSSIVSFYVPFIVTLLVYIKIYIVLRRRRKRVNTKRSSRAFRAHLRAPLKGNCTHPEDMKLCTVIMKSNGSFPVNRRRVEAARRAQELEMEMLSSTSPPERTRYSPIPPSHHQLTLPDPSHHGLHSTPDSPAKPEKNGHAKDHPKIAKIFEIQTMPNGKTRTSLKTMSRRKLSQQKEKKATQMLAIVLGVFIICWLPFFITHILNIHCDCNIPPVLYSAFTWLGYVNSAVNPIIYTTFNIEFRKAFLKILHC

`O=S(=O)(O)NC1CCCCC1` [Cyclamate, Sodium cyclohexylsulfamate]: the Specific binding in [1] is -4.4%; in series [7], -8.6%; in series [11] it was 1.0%; in series [12], 0.6%; in series [13], 19.1%. For the same compound, the ADI in series [2] is on record as 7 mg/kg bw/day. In addition, in series [3], the “male monkeys showing testicular effects” value was 2/5. Further, in series [4], the “dietary level at which persistent diarrhoea was noted” value is at least 141 mg/kg bw/day. Besides, the “responding probes (with CDS > 0.5)” value in series [5] stood at 18; in [9], 7; in [15] (HepG2), 22. In [6], this compound showed a risk of 0. The “IPP screening %, Specific binding” value in [8] is 21.0%. For the same compound, in series [10], the “pod_cell_stress PoD” value turned out to be 480.52 µM. For the same compound, the “IPP screening %, Coactivator recruitment” value in series [14] stood at 2.0%.

`CCN(CC)CCNC(=O)c1cc(Cl)c(N)cc1OC` [Metoclopramide, 4-Amino-5-chloro-N-[2-(diethylamino)ethyl]-2-methoxybenzamide]: the “Reported AUC0-t” value is 325.9 ng·h/mL in series [16] (setting [26]); 968.3 ng·h/mL in [16] (setting [27]); 247.7 ng·h/mL in [16] (setting [28]); 142.87 ng·h/mL in series [16] (setting [29]); 604 ng·h/mL in [16] (setting [30]); 359.8 ng·h/mL in [16] (setting [31]). The Reported cmax in series [16] (setting [26]) was 129.1 ng/mL; in series [16] (setting [27]) it was 201.3 ng/mL; in series [16] (setting [28]) it was 51.06 ng/mL; in series [16] (setting [29]), 39.948 ng/mL; in [16] (setting [30]), 55.85 ng/mL; in [16] (setting [31]), 75.62 ng/mL. For the same compound, the Reported tmax was 4.56 min in series [16] (setting [26]); 2.52 min in [16] (setting [27]); 44.8 min in [16] (setting [28]); 46.6 min in [16] (setting [29]); 121 min in series [16] (setting [30]); 62.22 min in series [16] (setting [31]). Besides, the “Intrinsic Liver Clearance” value is on record as 33.81 L/h in series [17] (PBK level L2, taken or scaled from references (median where several), ref [6],[7],[10],[19]) and 33.81 L/h in series [17] (PBK level L3, scaled from references (median where several), ref [7],[10],[19]). The Specific binding was 29.4% in [7] (setting [32]); -18.6% in series [19]; 6.5% in series [11]; -1.0% in series [12]; 40.1% in series [13]. The risk in series [18] (IV, High therapeutic, 30 mg/day, Exp3) worked out at 1; in [18] (Oral, High therapeutic, 30 mg/day, Tablet, Exp2), 1; in series [18] (Oral, Low therapeutic, 10 mg/day, Tablet, Exp1), 1. Besides, the “IPP screening %, Specific binding” value in series [8] came to 0.0%. This compound also came in with a half-inhibitory concentration (IC50) in [20] of 0.046 µM. Also, the “IPP screening %, Coactivator recruitment” value in series [14] amounted to 1.0%. Further, the “next lowest PoD, HepG2 HTTr” value in series [15] (BIFROST gene level PoD) came out at 16 µM.

With `CC(=O)Nc1ccc(O)cc1` [Paracetamol, N-(4-Hydroxyphenyl)acetamide], the Specific binding is -4.2% in series [1] (IPP screening at 100 uM, control CGS 19755); 8.7% in series [7] (setting [32]); 6.7% in [11]; -3.6% in series [12]; 34.9% in [13]. Besides, the “pod_httr_bifrost PoD” value in series [5] (HTTr BIFROST PoD) was determined as 4.261 µM; in [9] (HTTr BIFROST PoD) it was 76.0572 µM; in series [15] (HepG2, HTTr BIFROST PoD) it was 9.465 µM. In addition, the “podl_path_minbmd PoD” value in [5] (HTTr minimum pathway BMD(L)) was determined as 184.341 µM; in series [9] (HTTr minimum pathway BMD(L)) it was 322.442 µM; in series [15] (HepG2, HTTr minimum pathway BMD(L)), 262.202 µM. In [21], this compound returned a Peff of 3.56 cm/s x E-04. Also, the AC50 in series [22] was 39.1 µM. Further, the “PoD (LOEL)” value in [23] is 30 mg/kg bw/day. The “Risk Classification” value in [18] (IV 4000 mg/day), in series [18] (Oral 500 mg/day) and in [18] (Oral 4000 mg/day) was “High risk” in each case. Besides, the risk was determined as 1 in series [18] (IV, High therapeutic, 4g/day, Exp3); 1 in [18] (Oral, High therapeutic, 4000mg/day, Tablet, Exp1); 1 in [18] (Oral, Low therapeutic, 500mg/day, Tablet, Exp2). For the same compound, the “IPP screening %, Specific binding” value in series [8] is given as -2%. In addition, the “pod_cell_stress PoD” value in series [10] worked out at 40.132 µM. Besides, the “Intrinsic Liver Clearance” value in [24] was found to be 10.79 L/h. Further, in [25], the Fup is 100%. Also, in [14], the “IPP screening %, Coactivator recruitment” value was found to be 1.0%.
